These results are taken from US6124324A, “Thiophene-ethyl thiourea compounds and use” (Hughes Institute, priority 1999, dated 2000).

For data set [1], the target named is T1, purified recombinant HIV RT (Human immunodeficiency virus type 1 group M subtype B, UniProt P04585).
T1 construct: purified recombinant HIV RT; purchased Amersham, Arlington Heights, Ill; (Quan-T-RT system)
The data set is described as follows: Purified RT assay, cell-free Quan-T-RT system (scintillation proximity). Format: biochemical. To be noted: IC50 rRT, Table 2; recombinant HIV RT. How it is done: The synthesized compounds were tested for RT inhibitory activity (IC50 [rRT]) against purified recombinant HIV RT using the cell-free Quan-T-RT system (Amersham, Arlington Heights, Ill.), which utilizes the scintillation proximity assay principle as decribed in Bosworth, et al., 1989, Nature 341:167-168. In the assay, a DNA/RNA template is bound to SPA beads via a biotin/strepavidin linkage. The primer DNA is a 16-mer oligo(T) which has been annealed to a poly(A) template. The primer/template is bound to a strepavidin-coated SPA bead.
^3 H-TTP is incorporated into the primer by reverse transcription. In brief, ^3 H-TTP, at a final concentration of 0.5 μCi/sample, was diluted in RT assay buffer (49.5 mM Tris-Cl, pH 8.0, 80 mM KCl, 10 Mm MgCl2, 10 mM DTT, 2.5 mM EGTA, 0.05% Nonidet-P-40), and added to annealed DNA/RNA bound to SPA beads. The compound being tested was added to the reaction mixture at 0.001 μM-100 μM concentrations. […] The reaction was stopped by addition of 0.2 ml of 120 mM EDTA. The samples were counted in an open window using a Beckman LS 7600 instrument and IC50 values were calculated by comparing the measurements to untreated samples.

Data set [2] has as its system HIV-1 strain HTLVIIIB
The data set is described as follows: Inhibition of replication of HIV-1 strain HTLVIIIB in PBMC (p24 antigen EIA). Format: cell-based. The following applies: Human immunodeficiency virus 1, IIIB; inhibition of p24 antigen production in PBMC; read-out: IC50 HTLV IIIB. How it is done:
(§1) In addition, the anti-HIV activity of the compounds was measured by determining their ability to inhibit the replication of the HIV-1 strains HTLVIIIB, RT-MDR, A17, and A17 variant in peripheral blood mononuclear cells (PBMC) from healthy volunteer donors, using the method described in Uckun et.al., 1998, Antimicrobial Agents and Chemotherapy 42:383.
(§2) Normal human peripheral blood mononuclear cells (PBMNC) from HIV-negative donors were cultured 72 hours in RPMI 1640 supplemented with 20% (v/v) heat-inactivated fetal bovine serum (FBS), 3% interleukin-2,2 mM L-glutairine, 25 mM HEPES, 2 μL, NAHCO, […] gentamicin, and 4 Ag/mL phytohemagglutinin prior to exposure to HIV-1 or other HIV strain. The cells were then infected with virus at a multiplicity of infection (MOI) of 0.1 during a one-hour adsorption period at 37° C. in a humidified 5% CO2 atmosphere. Subsequently, cells were cultured in 96-well microplates (100 μL/well; 2×10^6 cells/mL, triplicate wells) in the presence of various inhibitor concentrations. Aliquots of culture supernatants were removed from the wells on the 7 th day after infection for p24 antigen p24 enzyme immunoassays (EIA), as previously described in Erice et al., 1993, Antimicrob. Ag. Chemotherapy 37:385-838. The applied p24 EIA was the unmodified kinetic assay commercially available from Coulter Corporation/Immunotech, Inc. (Westbrook, Me.).
(§3) Percent inhibition of viral replication was calculated by comparing the p24 values from the test substance-treated infected cells with p24 values from untreated infected cells (i.e, virus controls). […]

Data set [3] deals with HIV-1 strain A17 variant (Y181C, K103N). The data set is described as follows: microbe, parasite or virus in culture. Format: cell-based. The following applies: Human immunodeficiency virus 1, PBMC, read-out: IC50 A17 Varient (Y181C, K103N). How it is done:
as §1, §2
(§4) Percent inhibition of viral replication was calculated by comparing the p24 values from the test substance-treated infected cells with p24 values from untreated infected cells (i.e, virus controls).
(§5) RT-MDR was obtained through the AIDS Research and Reference Reagent Program, from Dr. Bendan Larder, and is described in Larder et al., 1993, Nature, 365, 451-453.

In data set [4] the test system is HIV-1 strain RT-MDR (V106A). Briefly: microbe, parasite or virus in culture. Format: cell-based. To be noted: Human immunodeficiency virus 1, PBMC, read-out: IC50 RT-MDR (V106A). How it is done:
as §1, §2, §4, §5

A further data set concerns HIV-1 strain A17 (Y181C). Briefly: microbe, parasite or virus in culture. To be noted: Human immunodeficiency virus 1, PBMC, read-out: IC50 A17 (Y181C). It counts as cell-based. How it is done:
as §1, §2, §3

Data set [5] can be described thus: Microculture Tetrazolium Assay (MTA), cytotoxicity. Format: cell-based. To be noted: XTT cytotoxicity; read-out: CC50 MTA. How it is done: A Microculture Tetrazolium Assay (MTA), using 2,3-bis(2-methoxy-4-nitro-5-sulfophenyl)-5-[(phenylamino)-carbonyl]-2H-tetrazolium hydroxide (XTT), was performed to evaluate the cytotoxicity of the compounds, using the methods described, for example, in Uckun et.al., 1998, Antimicrobial Agents and Chemotherapy 42:383; and Mao et.al., 1998, Bioorg. Med. Chem. Lett. 8:2213.
In general terms: Tetrazolium assays rely on reduction of a dye to a coloured formazan, in cell work by metabolically active cells.

Data set [6] concerns HIV-1 strain HTLVIIIB
The following applies: earlier publication (Mao et al.), cited from earlier work.

Data set [7] deals with NNI-resistant HIV-1 strains. To be noted: earlier publication (Mao et al., 1999); cited from earlier work.

The structures appear in SMILES notation. pIC50: −log10 of the molar value.

The pIC50 is the negative decadic logarithm of the IC50, by convention in mol/L. The CC50 is the concentration that lowers cell viability or growth by half.

On to `S=C(NCCN1CCCCC1)Nc1ccc(Br)cn1` [HI-172, N-[2-(1-piperidinoethyl)]-N'-[2-(5-bromopyridyl)]thiourea], for which the pIC50 is 6.22 in data set [1]; more than 9.00 in the data set on HIV-1 strain HTLVIIIB [2]; less than 4.00 in data set [3]; less than 4.00 in data set [4]; less than 4.00 with HIV-1 strain A17 (Y181C). Further, the half-maximal cytotoxic concentration (CC50) in data set [5] was more than 100 µM. Besides, in the data set with HIV-1 strain HTLVIIIB [6] (HTLVIIIB), the “antiviral potency relative to trovirdine” value is “more potent than trovirdine”. Besides, in the data set with HIV-1 strain HTLVIIIB [6] (human PBMC), the “abrogated the replication of HTLVIIIB” value is reported as “nanomolar concentrations”. For the same molecule, the “inhibition of replication of NNI-resistant HIV-1 strains” value in data set [7] was “neither compound inhibited the replication”.
